Measured values taken from patent publication US5925331A, “Technetium-99m labeled peptides for thrombus imaging” (Diatide, Inc., priority 1995, dated 1999).

Test system: human platelets in platelet-rich plasma
Assay: Platelet aggregation inhibition assay (ADP-induced, platelet-rich plasma)
Type: cell-based
Settings: fresh human platelet-rich plasma, 300,000 platelets per microliter; ADP 10 to 15 micromolar; read-out: IC50: concentration of reagent that inhibits by 50% the aggregation of human platelets in platelet-rich plasma induced by ADP
Experimental: Platelet aggregation studies were performed essentially as described by Zucker (1989, Methods in Enzymol. 169: 117-133). Briefly, platelet aggregation was assayed with or without putative platelet aggregation inhibitory compounds using fresh human platelet-rich plasma, comprising 300,000 platelets per microliter. Platelet aggregation was induced by the addition of a solution of adenosine diphosphate to a final concentration of 10 to 15 micromolar, and the extent of platelet aggregation monitored using a Bio/Data aggregometer (Bio/Data Corp., Horsham, Pa.). The concentrations of platelet aggregation inhibitory compounds used were varied from 0.1 to 500 μg/mL. The concentration of inhibitor that reduced the extent of platelet aggregation by 50% (defined as the IC50) was determined from plots of inhibitor concentration versus extent of platelet aggregation. An inhibition curve for peptide RGDS was determined for each batch of platelets tested as a positive control.

Row | Compound | IC50 [µM]
1 | CC(=O)NCSC[C@H](NC(=O)CNC(=O)CNC(=O)[C@@H]1CSCC(=O)N[C@H](Cc2ccc(O)cc2)C(=O)N[C@@H](CSCCCN)C(=O)NCC(=O)N[C@@H](CC(=O)O)C(=O)N1)C(=O)NCC(=O)N[C@@H](CSCNC(C)=O)C(=O)NCC(=O)NCC(=O)N[C@H](Cc1ccccc1)C(=O)N1CCC[C@H]1C(=O)N[C@@H](CCCNC(=N)N)C(=O)N1CCC[C@H]1C(=O)NCC(N)=O [Peptide P245, CH2 CO--YD.Apc.GDCGGCAcm GCAcm GGFD PRPGamide] | 0.5
2 | (CH2 CO--YD ApcGDCKGCAcm GCAcm GGC-amide)2 --BSME [Peptide P381] | 0.035
3 | GRDGVRGDFCAcm GCAcm amide [Peptide P98] | 15
4 | GRGDVRGDFKCAcm GCAcm amide [Peptide P97] | 8
